Source: article PMC11706420, “Establishing a physiologically based pharmacokinetic framework for aldehyde oxidase and dual aldehyde oxidase‐CYP substrates” (CPT: Pharmacometrics & Systems Pharmacology, 2024)
Like-named read-outs stand apart in the source and are kept apart here.

Tests used:
cMdr1-KO MDCK-EV cells = experiment: In vitro permeability (Papp), transwell transport; conditions: for Papp Apical to basolateral / Papp Basolateral to apical: 5 µM, 120 min, n=3, mean (CV%); for Efflux ratio: ratio of mean values
[1] = Blood-to-plasma ratio (B/P); assay type: in vitro ADME, human
Excerpt: Determination of blood to plasma ratio (B/P):
Whole human blood was collected on the day of the experiment from healthy volunteers. The collection protocol was approved by an independent ethical committee and all donors signed the consent forms. All samples were registered in the Janssen Biobank.
Prewarmed blood aliquots were mixed with the compounds (final concentrations shown in Suppl. Table 5) with a final organic DMSO solvent concentration of ≤0.1% (v/v). After gentle mixing to avoid haemolysis, blood aliquots were immediately collected for protein precipitation (1:1:8 ratios of blood sample:DMSO:ACN) and centrifugation (10 minutes, 3800 g) and the supernatant was used as a 0-minute reference blood sample. At the same time, blood aliquots were taken and centrifuged (10 minutes, 1200 g) to obtain the plasma portion. Plasma aliquots were then immediately collected for protein precipitation (1:1:8 ratios of plasma sample:DMSO:ACN) and centrifugation (10 minutes, 3800 g) and the supernatant was used as a 0-minute reference plasma sample. The remainder of the blood fraction was incubated (30 min at 37 °C). Following incubation, 30 -minute blood and plasma samples were taken and prepared as described for the reference 0-minute samples.
Mean compound concentration values (n=3 replicates) were calculated for both the blood and plasma samples. A blood-to-plasma concentration ratio was then determined using Eq. S4. […]

aldehyde oxidase (AO) [2] = biological target: T1, aldehyde oxidase (AO) (Homo sapiens, UniProt Q06278); experiment: In vitro AO inhibition (literature)
T1 sequence (Q06278 1-1338): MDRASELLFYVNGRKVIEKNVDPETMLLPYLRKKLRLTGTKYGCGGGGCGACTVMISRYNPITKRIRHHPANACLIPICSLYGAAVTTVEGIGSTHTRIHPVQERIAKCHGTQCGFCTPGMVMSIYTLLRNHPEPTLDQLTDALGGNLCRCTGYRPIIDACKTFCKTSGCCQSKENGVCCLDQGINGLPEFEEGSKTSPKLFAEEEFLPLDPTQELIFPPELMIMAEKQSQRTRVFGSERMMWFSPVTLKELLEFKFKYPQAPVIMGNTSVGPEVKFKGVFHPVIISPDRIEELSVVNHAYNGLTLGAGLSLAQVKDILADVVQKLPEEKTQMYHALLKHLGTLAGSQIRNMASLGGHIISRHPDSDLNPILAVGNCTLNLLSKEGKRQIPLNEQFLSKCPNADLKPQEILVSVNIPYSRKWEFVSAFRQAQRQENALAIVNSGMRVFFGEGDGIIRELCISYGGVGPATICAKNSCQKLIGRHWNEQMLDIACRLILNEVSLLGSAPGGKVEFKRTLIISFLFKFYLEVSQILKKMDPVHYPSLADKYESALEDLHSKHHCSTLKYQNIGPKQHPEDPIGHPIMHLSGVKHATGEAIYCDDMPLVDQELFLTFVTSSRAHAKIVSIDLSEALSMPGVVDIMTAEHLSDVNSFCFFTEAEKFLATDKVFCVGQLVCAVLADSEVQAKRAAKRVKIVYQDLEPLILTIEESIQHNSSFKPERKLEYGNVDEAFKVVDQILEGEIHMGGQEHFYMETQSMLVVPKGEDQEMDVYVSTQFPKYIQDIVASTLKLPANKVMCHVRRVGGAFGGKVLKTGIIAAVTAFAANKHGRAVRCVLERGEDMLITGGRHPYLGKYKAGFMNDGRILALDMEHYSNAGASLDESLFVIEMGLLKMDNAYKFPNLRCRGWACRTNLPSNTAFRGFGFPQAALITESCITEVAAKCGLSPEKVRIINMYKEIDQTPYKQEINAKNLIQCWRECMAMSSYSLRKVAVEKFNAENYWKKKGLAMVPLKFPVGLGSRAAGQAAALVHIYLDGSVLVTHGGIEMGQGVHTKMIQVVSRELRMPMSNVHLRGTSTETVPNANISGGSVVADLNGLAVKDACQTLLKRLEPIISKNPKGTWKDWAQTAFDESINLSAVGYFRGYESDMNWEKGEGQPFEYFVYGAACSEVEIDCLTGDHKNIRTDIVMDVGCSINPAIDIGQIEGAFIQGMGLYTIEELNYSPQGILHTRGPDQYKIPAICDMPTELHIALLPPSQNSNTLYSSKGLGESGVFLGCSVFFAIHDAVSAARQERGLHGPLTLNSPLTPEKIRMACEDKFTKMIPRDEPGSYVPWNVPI
Excerpt: (§1) Supplement 5. Exploratory analysis to evaluate potential AO-mediated DDI risks […]
(§2) Semi-mechanistic model for AO-mediated DDI risk predictions
(§3) Supp. Table 4. Summary of inhibitor parameters used in the semi -mechanistic static model to evaluate the risk of AO -mediated DDIs
(§4) Semi-mechanistic model for AO mediated DDI risk predictions: […]
(§5) using the semi-mechanistic static model with listed parameters in Suppl. Table 4. The most conservative approach is used for all compounds with maximum Cmax,u and minimum Ki,u data available. […]
(§6) [I] is the unbound concentration of inhibitors in the liver and was designated as the unbound maximum systemic concentration of inhibitors as a surrogate. 27 Due to the lack of AO kdeg values in the literature, the arithmetic means of all reported P450 kdeg (0.00026 min-1) was used.28, 29 […]
(§7) Table S4. Summary of inhibitor parameters used in the semi-mechanistic static model to evaluate the risk of […]
(§8) bSimcyp v.21 Compound Repository […]
(§9) dCorrected for the 0.05 mg/mL cytosolic protein from the measured fuinc at 1.5 mg/mL cytosolic protein34, 36

[3] = Inhibitor plasma exposure and plasma binding (literature); assay type: in vivo, human; conditions: Figure 5
Excerpt: as §1, §2, §3, §4, §5, §6, §7, §8, §9

aldehyde oxidase (AO) [4] = biological target: T1, aldehyde oxidase (AO); conditions: ref suppl. 30, 31, 32, 35, 59; cited from earlier work
CYP3A4 = conditions: cited from earlier work
[5] = Cytosolic binding (fucyt), dog liver cytosol; conditions: 1 mg/mL; n=3, mean (CV%)
[6] = In vitro permeability (Papp), transwell transport; conditions: dog, MDCK
[7] = Cytosolic binding (fucyt), human liver cytosol with AO inhibitor; conditions: 1 mg/mL; n=3, mean (CV%)
[8] = cited from earlier work; for fmAO: ref suppl. 8-13; for fmCYP3A4: ref suppl. 8-12
[9] = cited from earlier work
[10] = observed; ref Table S2/S3 studies; cited from earlier work
[11] = Plasma protein binding (fup), rapid equilibrium dialysis; assay type: in vitro ADME, human; conditions: male, human, 1 µM; for fup: 6 h, pH 7.4
Description: (differing in 2 donors) were used for activity and microsomal binding assays, respectively.
The human biological samples were sourced ethically, and their research use was in accord with the terms of the informed consents under an IRB/EC approved protocol.
Determination of plasma protein binding (fup):
Human plasma (male, K2EDTA) was obtained from BioIVT (Baltimore, MD, USA). A pool of n=20 donors was prepared in-house (batch: 16062022). The plasma protein binding of compounds in human was determined by equilibrium dialysis using the rapid equilibrium dialysis (RED) device (Thermo […]
Frozen blank human plasma […]
solution to a final concentration of 1 µM (0.5 % DMSO). 300 µ L of the fortified plasma samples were subjected to dialysis against 500 µL PBS buffer at pH 7.4, for 6 h at 37 °C in triplicate. After dialysis, 200 µl aliquots of the buffer and the plasma compartments were transferred into micronic tubes. To minimize the potential for non -specific binding to the micronic tubes the buffer sam ples were collected on to 50µl of 10 % bovine serum albumin (BSA). For the assessment of test compound stability in plasma, 300 µl aliquots of the spiked plasma solutions were transferred into micronic tubes and incubated in an air heated incubator at 37°C without shaking for 4 and 20 hours. The remaining spiked protein solutions were frozen and used to measure the initial start concentration ( C0) to calculate the recovery. Sample analysis was achieved by LC -MS/MS and absolute quantification of the drug lev els in the buffer and plasma compartments was achieved via a matrix matched calibration curve (in the presence of an internal standard tolbutamide). All buffer and plasma sample sets were matrix matched […]
for analysis. The samples were centrifuged (15 minutes, 3400 g) and supernatants were transferred to a fresh plate for analysis. The unbound concentration (Cu), and the total concentration (CED) were determined by measurement of the concentration of the test compound in the buffer and plasma compartments of the dialysis cells, respectively. The fraction unbound was calculated using Eq. S1.
fuplasma = Cu/CED (Eq. S1)
The percentage recovery was calculated as the ratio of the sum of the amount in the buffer (Au) and plasma (AED) compartments to the amount at time zero (A0) (Eq. S2). The percentage stability was calculated as the ratio of the concentration of the test compound at the end of the incubation (C t) time […]
% recovery = (( Au + AED ) / A0 ) × 100 (Eq. S2)

[12] = DDI study with rifampicin (capmatinib 400, idelalisib 150, lenvatinib 24 mg) or carbamazepine (ziprasidone 20 mg), observed, ref suppl. 15,18,21,25
[13] = with itraconazole (capmatinib 200 mg) or ketoconazole (idelalisib 400, lenvatinib 5, ziprasidone 40 mg), observed, ref suppl. 15,10,17,20,24
[14] = with rifampicin (capmatinib 400, idelalisib 150, lenvatinib 24 mg) or carbamazepine (ziprasidone 20 mg), observed, ref suppl. 15,18,21,25

Structure (SMILES): C[C@H]1O[C@@H](O[C@H]2[C@@H](O)C[C@H](O[C@H]3[C@@H](O)C[C@H](O[C@H]4CC[C@@]5(C)[C@H](CC[C@@H]6[C@@H]5C[C@@H](O)[C@]5(C)[C@@H](C7=CC(=O)OC7)CC[C@]65O)C4)O[C@@H]3C)O[C@@H]2C)C[C@H](O)[C@@H]1O [3H-digoxin]
- Papp Apical to basolateral (cMdr1-KO MDCK-EV cells): 1.66 (34.3) 10^−6 cm/s
- Papp Basolateral to apical (cMdr1-KO MDCK-EV cells): 1.43 (28) x 10-6 cm/s
- Efflux ratio (cMdr1-KO MDCK-EV cells): 0.864

Structure (SMILES): CC(C)NCC(O)COc1cccc2ccccc12 (stereo not drawn) [3H-propranolol]
- Papp Apical to basolateral (cMdr1-KO MDCK-EV cells): 31.4 (4.14) 10^−6 cm/s
- Papp Basolateral to apical (cMdr1-KO MDCK-EV cells): 17.7 (9.6) x 10-6 cm/s
- Efflux ratio (cMdr1-KO MDCK-EV cells): 0.563

Structure (SMILES): OCC(O)C(O)C(O)C(O)[14CH2]O (stereo not drawn) [14C-mannitol]
- Papp Apical to basolateral (cMdr1-KO MDCK-EV cells): 0.793 (76.4) 10^−6 cm/s
- Papp Basolateral to apical (cMdr1-KO MDCK-EV cells): 0.378 (63.2) x 10-6 cm/s
- Efflux ratio (cMdr1-KO MDCK-EV cells): 0.476

Structure (SMILES): CCN(CC)CCCC(C)Nc1ccnc2cc(Cl)ccc12 (stereo not drawn) [Chloroquine]
- B/P ([1]; 50 ng/mL): 3.46
- B/P ([1]; 1000 ng/mL): 2.40

Structure (SMILES): CN/C(=N/CCSCc1nc[nH]c1C)NC#N [Cimetidine]
- Ki (aldehyde oxidase (AO) [2]; Ki,u, Figure 5): 132 µM
- Cmax,u [3]: 5.0 µM
- Mode of inhibition (aldehyde oxidase (AO) [4]): Competitive

Structure (SMILES): CC[C@H](Nc1ncnc2[nH]cnc12)c1nc2cccc(F)c2c(=O)n1-c1ccccc1 [Idelalisib]
- Cmax, control (CYP3A4; DDI study with itraconazole (capmatinib 200 mg) or ketoconazole (idelalisib 400, lenvatinib 5, ziprasidone 40 mg), observed geomean (CV%), ref suppl. 15,10,17,20,24): 3550 ng/mL
- AUCinf, control (CYP3A4; DDI study with itraconazole (capmatinib 200 mg) or ketoconazole (idelalisib 400, lenvatinib 5, ziprasidone 40 mg), observed, ref suppl. 15,10,17,20,24): 15900 ng·h/mL
- AUCinf, control (AUC0-12 for ziprasidone) (CYP3A4; [12]): 9599 (37) ng.h/mL
- Cmax, control (CYP3A4; [12]): 2152 (24) ng/mL
- AUCinf, interaction (CYP3A4; [13]): 28500 ng·h/mL
- Cmax, interaction (CYP3A4; [13]): 4450 ng/mL
- AUCinf, interaction (AUC0-12 for ziprasidone) (CYP3A4; [14]): 2294 (40) ng.h/mL
- Cmax, interaction (CYP3A4; [14]): 933 (41) ng/mL
- fucyt, Dog Liver Cytosol with 50 uM Hydralazine [5]: 0.814 (5.11)
- Papp A→B at 120 min, 5 µM [6]: 16.2 ×10⁻⁶ cm/s
- Papp B→A at 120 min, 5 µM [6]: 14.7 ×10⁻⁶ cm/s
- fucyt, Human Liver Cytosol with 5 uM Raloxifene [7]: 0.787 (5.70)
- fucyt, Human Liver Cytosol with 50 uM Hydralazine [7]: 0.924 (3.35)
- fmAO ([8]; measured in excreta): 0.29
- fmAO ([8]; observed (mass balance), min-max where uncertain, Table S10): 29
- fmCYP3A4 ([8]; observed (mass balance), min-max where uncertain): 12-68
- fmCYP3A4 [8]: 0.12–0.68
- fmCYP3A4 (maximum) ([8]; ref suppl. 9-11): 0.68
- fmCYP3A4 (minimum) ([8]; ref suppl. 9-11): 0.12
- pKa1 ([9]; 47 (per cell)): 1.6[45]
- pKa2 ([9]; 47 (per cell)): 3.4[45]
- logP ([9]; octanol-water, 12 (per cell)): 2[45]
- CLRenal [10]: 0.459 L/h

Structure (SMILES): CCC(C)n1ncn(-c2ccc(N3CCN(c4ccc(OCC5COC(Cn6cncn6)(c6ccc(Cl)cc6Cl)O5)cc4)CC3)cc2)c1=O (stereo not drawn) [Itraconazole]
- IC50 (aldehyde oxidase (AO) [2]): > 2.8 µM

Structure (SMILES): CC(=O)N1CCN(c2ccc(OCC3COC(Cn4ccnc4)(c4ccc(Cl)cc4Cl)O3)cc2)CC1 (stereo not drawn) [Ketoconazole]
- IC50 (aldehyde oxidase (AO) [2]): 1.2 to 2.1 µM

Structure (SMILES): CC(C)NCC(O)COc1cccc2ccccc12 (stereo not drawn) [Propranolol]
- fup [11]: 0.137 (4.98)
- % Stability in plasma ([11]; plasma, 20 h): 94.8%

Structure (SMILES): CC(=O)CC(c1ccccc1)c1c(O)c2ccccc2oc1=O (stereo not drawn) [Warfarin]
- fup [11]: 0.0064 (1.26)
